Test results: publication PMC5575254, “An allosteric ligand-binding site in the extracellular cap of K2P channels” (Nature Communications, 2017)

Columns and labels:
[1] = target: T1, TREK-1 channel (Homo sapiens, UniProt O95069); assay: Whole-cell voltage clamp of CHO cells transiently transfected with TREK-1; assay type: cell-based; conditions: whole-cell, CHO cells, WT TREK-1, mean ± s.e.m; for IC50: read-out: half-maximal inhibition concentration (IC50), TREK-1
T1 construct: expressed in transfected cells; host or cells: CHO cells, transient transfection
T1 sequence (O95069 1-411 isoform O95069-2): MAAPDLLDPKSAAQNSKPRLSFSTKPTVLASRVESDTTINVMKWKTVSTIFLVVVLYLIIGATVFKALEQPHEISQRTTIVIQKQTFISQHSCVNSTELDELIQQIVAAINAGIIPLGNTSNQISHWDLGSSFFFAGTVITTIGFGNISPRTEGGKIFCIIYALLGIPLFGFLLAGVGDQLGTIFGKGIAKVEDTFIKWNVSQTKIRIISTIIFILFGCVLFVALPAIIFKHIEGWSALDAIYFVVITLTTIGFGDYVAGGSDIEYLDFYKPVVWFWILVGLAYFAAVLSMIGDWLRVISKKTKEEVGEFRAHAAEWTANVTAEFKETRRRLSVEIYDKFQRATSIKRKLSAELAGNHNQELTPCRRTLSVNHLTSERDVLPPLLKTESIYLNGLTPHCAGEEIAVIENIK
From the text: (§1) cDNA of the human TREK-1, TREK-2 and TRAAK channels were subcloned into the pEGFPN1 expression vector (Invitrogen), respectively. Mutations were introduced into TREK-1 or TRAAK by PCR using the QuickChange XL sitedirected mutagenesis kit (Agilent Technologies) and were subsequently confirmed by DNA sequencing.
(§2) Chinese hamster ovary (CHO) cells were provided by the Cell Bank of Chinese Academy of Sciences (Shanghai, China). CHO cells were maintained in DMEM/F12 (Gibco) supplemented with 10% fetal bovine serum (Gibco) and 100 μg ml^−1 penicillin-streptomycin (Cellgro) in a humidified incubator at 37 °C (5% CO2). For electrophysiology experiments, cells plated in 35 mm tissue culture dishes (Corning Incorporated) were transiently transfected with the plasmids using PolyJet™ reagent (SignaGen) according to the manufacturer’s instructions. Primers used in this study are listed in Supplementary Table 4.
(§3) All electrophysiological recordings were obtained using patch-clamp recordings in two different configurations: (1) whole cell for macroscopic current dose–response curves; and (2) outside-out and inside-out for macroscopic currents recordings.
(§4) All patch-clamp recordings were conducted 36–96 h after transfection with an Axopatch-200B amplifier (Molecular Devices) at room temperature (23–25 °C). The microelectrodes fashioned from 1.5 mm thin-walled borosilicate glass with filament were pulled from Flaming/Brown type micropipette puller (P-97; SUTTER INSTRUMENT) with the resistances of 3–7 MΩ (whole cell) or 7–15 MΩ (outside-out) when filled with a solution containing (in mM): 140 KCl, 2 MgCl2, 10 EGTA, 1 CaCl2, 10 HEPES (pH 7.3, adjusted with KOH). External solution contained (in mM): 150 NaCl, 5 KCl, 0.5 CaCl2, 1.2 MgCl2, 10 HEPES (pH 7.3, adjusted with NaOH). The current signals were filtered at 1 kHz and digitized at a 10 kHz sampling frequency by using DigiData 1440 A.
(§5) Data of whole-cell voltage clamp experiments were fitted using doseResp function. The half inhibition concentrations were derived from fits of the dose–response curves to the function:1 I/I0=A1+A2-A1/1+10^logx0-xP, where I 0 and I are current amplitudes before and after application of inhibitors; A 1 and A 2 are constants between 0 and 1; x is the concentration of inhibitor; x o is the concentration when 50% inhibition was reached (IC50), P is the Hill constant.

[2] = target: T2, TRAAK (Homo sapiens, UniProt Q9NYG8); assay: Whole-cell voltage clamp of CHO cells expressing TRAAK; assay type: cell-based; conditions: for IC50: whole-cell, CHO cells, WT TRAAK, mean ± s.e.m
T2 construct: expressed in transfected cells; host or cells: CHO cells, transient transfection
T2 sequence (Q9NYG8 1-393): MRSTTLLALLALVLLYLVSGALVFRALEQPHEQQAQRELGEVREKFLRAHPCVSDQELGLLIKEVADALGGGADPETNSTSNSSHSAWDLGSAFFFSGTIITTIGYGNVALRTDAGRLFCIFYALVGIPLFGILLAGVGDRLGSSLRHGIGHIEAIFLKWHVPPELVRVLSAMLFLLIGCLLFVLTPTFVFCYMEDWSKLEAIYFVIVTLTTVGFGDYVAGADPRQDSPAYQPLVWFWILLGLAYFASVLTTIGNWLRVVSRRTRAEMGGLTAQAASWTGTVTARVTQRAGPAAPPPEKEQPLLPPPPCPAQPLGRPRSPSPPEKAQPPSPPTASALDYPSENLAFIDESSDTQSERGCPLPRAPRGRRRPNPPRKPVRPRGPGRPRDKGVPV
From the text: as §1, §2, §3, §4, §5

[3] = target: T3, TREK-2 (Homo sapiens, UniProt P57789); assay: Whole-cell voltage clamp of CHO cells expressing TREK-2; assay type: cell-based; conditions: mean ± s.e.m
T3 construct: expressed in transfected cells; host or cells: CHO cells, transient transfection
T3 sequence (P57789 1-538): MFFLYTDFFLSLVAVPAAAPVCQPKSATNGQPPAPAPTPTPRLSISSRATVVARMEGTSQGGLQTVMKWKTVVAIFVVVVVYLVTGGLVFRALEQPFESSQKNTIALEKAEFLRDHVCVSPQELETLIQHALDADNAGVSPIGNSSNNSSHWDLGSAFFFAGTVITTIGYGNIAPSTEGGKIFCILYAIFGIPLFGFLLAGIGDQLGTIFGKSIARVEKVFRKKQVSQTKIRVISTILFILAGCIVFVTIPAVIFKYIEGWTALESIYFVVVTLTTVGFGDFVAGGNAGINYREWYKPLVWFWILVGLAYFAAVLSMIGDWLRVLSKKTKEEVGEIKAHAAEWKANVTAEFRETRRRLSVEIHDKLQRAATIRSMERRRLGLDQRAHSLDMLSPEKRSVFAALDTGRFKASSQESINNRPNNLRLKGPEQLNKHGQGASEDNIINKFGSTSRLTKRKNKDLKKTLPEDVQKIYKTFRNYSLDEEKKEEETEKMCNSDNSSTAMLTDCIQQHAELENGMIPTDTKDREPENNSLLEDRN
From the text: as §1, §2, §3, §4, §5

[4] = system: TREK-1; parameters: method as in Braun et al. [22]; conditions: ref Braun et al. [22]; cited from earlier work
[5] = system: TREK-2; parameters: method as in PMID 25409575, PMID 18417474, PMID 12606773, PMID 16513667; conditions: binds D135; ref [22]-[25]; cited from earlier work
[6] = system: I110D TREK-1 mutant; parameters: method as in PMID 25409575; conditions: ref [22]; cited from earlier work
[7] = system: TASK-3; parameters: method as in PMID 25409575, PMID 18417474, PMID 12606773, PMID 16513667; conditions: binds E70; ref [22]-[25]; cited from earlier work
[8] = system: K2P channels; parameters: method as in PMID 9628867, PMID 8605869; conditions: ref [26], [27]; cited from earlier work
[9] = system: TREK-1; parameters: method as in earlier work; conditions: ref [2] Borsotto M, et al. (2015); cited from earlier work
[10] = system: TREK channels; conditions: ref [7], [16]; cited from earlier work
[11] = system: mice; assay: Forced swimming test; assay type: in vivo, Male C57BL/6 mice; conditions: chronic i.p. administration 10 days; TKDC 0.5, 1, 5 mg kg-1; fluoxetine 10 mg kg-1; vs vehicle
Protocol: Male C57BL/6 mice, aged 8 weeks (weighing 18–20 g) were used for acute and chronic drug administration and behavioral tests. The mice were housed four per cage under a 12-h light–dark cycle. Mice were raised under stable conditions with food and water ad libitum. All animal studies and experimental procedures were approved by the Animal Care Committees of the Shanghai Institute of Materia Medica, Chinese Academy of Sciences, and experiments were carried out in accordance with EU Directive 2010/63/EU on the protection of animals used for scientific purposes. […] The mice were removed to a sound-attenuating testing room 3–4 h before testing. The behavioral tests were carried out 30 min and 24 h after acute and chronic drugs administration, respectively.
The mice were performed under normal light. The apparatus was a transparent Plexiglas cylinder with 30 cm height × 10 cm diameter and the water temperature at 23–25 °C were set to prevent mice from touching the bottom with their limbs. Mice were allowed to swim for 8 min, and their activity was videotaped. There was an extra 15-min swimming in the previous day. The duration of immobility defined as floating or remaining motionless was assessed. To avoid extremely active at the beginning of swimming, the first 2 min of swimming was also excluded as the tail suspension test. […]

Compound: O=C(CNc1ccc(Cl)cc1)N1CCc2ccccc2C1 [28NH, 2-((4-chlorophenyl)amino)-1-(3,4-dihydroisoquinolin-2(1H)-yl)ethanone]
- half-maximal inhibition concentration (IC50), TREK-1 [1]: comparable to those observed for TKDC-induced inhibitions
- IC50 for TRAAK relative to the value obtained with TKDC ([2]; 28NH vs TKDC): almost sevenfold lower
- IC50 [2]: 11.8 ± 2.1 µM
- IC50, TREK-2 [3]: comparable to those observed for TKDC-induced inhibitions

Compound: N.N.N.N.N.N.N.N.N.N.N.N.N.N.[Cl-].[Cl-].[Cl-].[Cl-].[Cl-].[Cl-].[O-2].[O-2].[Ru+3].[Ru+3].[Ru+4] [ruthenium red]
- sensitivity of TREK-1 [4]: not sensitive
- effect on TREK-2 [5]: inhibit
- effect on I110D TREK-1 mutant [6]: inhibits
- effect on TASK-3 [7]: inhibit

Compound: Cc1cc(NC(=O)c2cccs2)cc(-c2nc3ccccc3o2)c1O [TKN2]
- IC50 [1]: 3.8 ± 0.6 µM
- IC50 [2]: 10.3 ± 1.5 µM
- IC50 [3]: 1.7 ± 0.8 µM

Compound: COc1ccccc1C(=O)Nc1cc(C(C)C)ccc1O [TKN1]
- IC50 [1]: 6.5 ± 1.7 µM
- IC50 [2]: 15.7 ± 3.1 µM
- IC50 [3]: 4.4 ± 1 µM

Compound: CC[N+](CC)(CC)CC [tetraethylammonium]
- sensitivity of K2P channels to classical potassium channel pore blockers [8]: insensitivity

Compound: [Cs+] [cesium ion]
- sensitivity of K2P channels to classical potassium channel pore blockers [8]: insensitivity

Compound: Nc1ccncc1 [4-aminopyridine]
- sensitivity of K2P channels to classical potassium channel pore blockers [8]: insensitivity

Compound: spadin
- effect on TREK-1 [9]: specifically blocks the TREK-1

Compound: CNCCC(Oc1ccc(C(F)(F)F)cc1)c1ccccc1 (centres unmarked) [fluoxetine, reference compound]
- effect on TREK channels [10]: can also inhibit TREK channels
- immobility in the forced swimming test [11]: did not show antidepressant effects
